# Source: ChEMBL document CHEMBL6071200, “Discovery of Ring-Annulated Analogues of Cannabidiol as Potential Anticancer Agents: Synthesis and Biological Evaluation” (ACS Med Chem Lett, 2024)
# Active and inactive are the calls of the source. No cut-off for these calls is given here.
# Experiments:
# [1] = tested on: MCF7; assay: Anticancer activity against human MCF7 cells; format: functional, cell-based
# [2] = Anticancer activity against human MZC cells; format: functional, cell-based
# [3] = Anticancer activity against mouse Thymocyte; format: toxicity, cell-based; conditions: thymocytes
# [4] = tested on: A549; assay: Anticancer activity against human A549 cells; format: functional, cell-based
# [5] = Metabolic stability in human liver microsomes assessed as parent compound remaining measured after 30 mins; format: ADME, Microsome; conditions: read-out: Stability
# [6] = Selectivity index, ratio of IC50 for HEK293 cells to IC50 for human HCT-116 cells; format: toxicity; conditions: HEK293 cells versus HCT-116 cells, read-out: Ratio IC50
# [7] = tested on: EL4; assay: Anticancer activity against mouse EL4 cells; format: functional, cell-based
# [8] = tested on: HCT-116; assay: Cytotoxicity against human HCT-116 cells assessed as inhibition of cell growth at 20 uM incubated for 48 hrs by SRB assay relative to control; format: functional
# [9] = tested on: MCF7; assay: Induction of apoptosis in human MCF7 cells assessed as early apoptotic cells at 14.65 uM incubated for 24 hrs by Annexin V-FITC/PI staining based flow cytometric analysis (reference value: 2.93 %); format: functional
# [10] = Anticancer activity against KiMol cells (unknown origin); format: functional, cell-based; conditions: KiMol cell
# [11] = tested on: MCF7; assay: Cell cycle arrest in human MCF7 cells assessed as accumulation of cells at G1 phase at 14.65 uM incubated for 24 hrs by PI staining based flow cytometric analysis (reference value: 63.9 %); format: functional
# [12] = tested on: MCF7; assay: Anticancer activity against human MCF7 cells assessed as reduction in cell viability at 14.65 uM preincubated with LY320135 for 1 hrs followed by compound addition and measured after 48 hrs by SRB assay; format: functional, cell-based
# [13] = tested on: MCF7; assay: Induction of apoptosis in human MCF7 cells assessed as necrotic cells at 14.65 uM incubated for 24 hrs by Annexin V-FITC/PI staining based flow cytometric analysis (reference value: 4.02 %); format: functional
# [14] = tested on: MCF7; assay: Cell cycle arrest in human MCF7 cells assessed as accumulation of cells at S phase at 14.65 uM incubated for 24 hrs by PI staining based flow cytometric analysis (reference value: 22.93 %); format: functional
# [15] = tested on: T98; assay: Anticancer activity against human T98 cells; format: functional, cell-based
# [16] = tested on: DU-145; assay: Anticancer activity against human DU-145 cells; format: functional, cell-based
# [17] = tested on: MCF7; assay: Anticancer activity against human MCF7 cells assessed as reduction in cell viability at 14.65 uM incubated for 48 hrs by SRB assay relative to control; format: functional
# [18] = tested on: MCF7; assay: Anticancer activity against human MCF7 cells assessed as reduction in cell viability at 14.65 uM preincubated with capsazepine for 1 hrs followed by compound addition and measured after 48 hrs by SRB assay; format: functional, cell-based
# [19] = tested on: MCF7; assay: Inhibition of colony formation in human MCF7 cells assessed as reduction in number of colonies at subtoxic doses measured after 48 hrs by crystal violet staining based analysis; format: functional, cell-based
# [20] = tested on: MCF7; assay: Induction of ROS production in human MCF7 cells assessed as DCFDA intensity at 14.6 uM incubated for 24 hrs by flow cytometric analysis (reference value: 0.95 %); format: functional
# [21] = tested on: MDA-MB-231; assay: Anticancer activity against human MDA-MB-231 cells; format: functional, cell-based
# [22] = tested on: C6; assay: Anticancer activity against rat C6 cells; format: functional, cell-based
# [23] = tested on: MCF7; assay: Cytotoxicity against human MCF7 cells assessed as inhibition of cell growth incubated for 48 hrs by SRB assay; format: functional, cell-based; conditions: MCF7, 48 h
# [24] = tested on: LNCaP; assay: Anticancer activity against human LNCaP cells; format: functional, cell-based
# [25] = tested on: MCF7; assay: Anticancer activity against human MCF7 cells assessed as reduction in cell viability at 14.65 uM preincubated with ML-193 for 1 hrs followed by compound addition and measured after 48 hrs by SRB assay; format: functional, cell-based
# [26] = tested on: MCF7; assay: Cytotoxicity against human MCF7 cells assessed as inhibition of cell growth at 20 uM incubated for 48 hrs by SRB assay relative to control; format: functional
# [27] = tested on: SW480; assay: Anticancer activity against human SW480 cells; format: functional, cell-based
# [28] = tested on: NCI-H460; assay: Anticancer activity against human NCI-H460 cells; format: functional, cell-based
# [29] = tested on: HCT-116; assay: Cytotoxicity against human HCT-116 cells assessed as inhibition of cell growth incubated for 48 hrs by SRB assay; format: functional, cell-based; conditions: HCT-116, 48 h
# [30] = tested on: MCF7; assay: Anticancer activity against human MCF7 cells assessed as reduction in cell viability at 14.65 uM preincubated with SR144528 for 1 hrs followed by compound addition and measured after 48 hrs by SRB assay; format: functional, cell-based
# [31] = tested on: SF-126; assay: Anticancer activity against human SF-126 cells; format: functional, cell-based
# [32] = tested on: HL-60; assay: Anticancer activity against human HL-60 cells; format: functional, cell-based
# [33] = tested on: MCF7; assay: Anticancer activity against human MCF7 cells assessed as reduction in cell viability at 14.65 uM preincubated with GW9662 for 1 hrs followed by compound addition and measured after 48 hrs by SRB assay; format: functional, cell-based
# [34] = Cytotoxicity against human HEK293 cells assessed as inhibition of cell growth incubated for 48 hrs by SRB assay; format: toxicity, cell-based
# [35] = tested on: Caco-2; assay: Anticancer activity against human Caco-2 cells; format: functional, cell-based
# [36] = tested on: T47D; assay: Anticancer activity against human T47D cells; format: functional, cell-based
# [37] = tested on: CCRF-CEM; assay: Anticancer activity against human CEM cells; format: functional, cell-based
# [38] = tested on: RBL-2H3; assay: Anticancer activity against rat RBL-2H3 cells; format: functional, cell-based
# [39] = tested on: MCF7; assay: Induction of mitochondrial membrane loss in human MCF7 cells assessed as fold change at 14.6 uM incubated for 24 hrs by Mitotracker dye based flow cytometric analysis relative to control; format: functional
# [40] = Anticancer activity against mouse GL261 cells; format: functional, cell-based
# [41] = tested on: AGS; assay: Anticancer activity against human AGS cells; format: functional, cell-based
# [42] = tested on: MCF7; assay: Induction of apoptosis in human MCF7 cells assessed as viable cells at 14.65 uM incubated for 24 hrs by Annexin V-FITC/PI staining based flow cytometric analysis (reference value: 88.20 %); format: functional; conditions: read-out: Activity
# [43] = tested on: MCF7; assay: Induction of apoptosis in human MCF7 cells assessed as late apoptotic cells at 14.65 uM incubated for 24 hrs by Annexin V-FITC/PI staining based flow cytometric analysis (reference value: 4.85 %); format: functional
# [44] = Selectivity index, ratio of IC50 for HEK293 cells to IC50 for human MCF7 cells; format: toxicity; conditions: HEK293 cells versus MCF7 cells, read-out: Ratio IC50
# [45] = tested on: MCF7; assay: Cell cycle arrest in human MCF7 cells assessed as accumulation of cells at G2/M phase at 14.65 uM incubated for 24 hrs by PI staining based flow cytometric analysis (reference value: 13.7 %); format: functional
# [46] = target: CYP450 (Homo sapiens, UniProt P04798+P05177+P05181+P08684+P10632+P10635+P11509+P11712+P13584+P20813+P20815+P20853+P24462+P24903+P33260+P33261+P51589+P78329+P98187+Q02928+Q08477+Q16678+Q16696+Q5TCH4+Q6VVX0+Q7Z449+Q8TAV3+Q96SQ9+Q9HB55); assay: Inhibition of CYP450 in human liver microsomes at <1 uM by cocktail-mixture based assay relative to control; format: ADME, Microsome; parameters: dose or concentration left out as unconfirmed; conditions: probe cocktail mixture
structure (smiles),measurement,setting,value
C=C(C)[C@@H]1CCC(C)=C[C@H]1c1c(O)cc(CCCCC)cc1O [CANNABIDIOL],IC50,[1],1300 nM
same,IC50,[2],1200 nM
same,IC50,[3],7.01 µM
same,IC50,[4],2800 nM
same,remaining at 0.5 h,[5],17%
same,selectivity ratio,[6],9.7
same,IC50,[7],7.01 µM
same,inhibition at 20 µM,[8],77.3%
same,Activity,[9],6.33%
same,IC50,[10],6 µM
same,Activity,[11],75.12%
same,Activity,[12],Active
same,Activity,[13],2.38%
same,Activity,[14],6.84%
same,IC50,[15],1200 nM
same,IC50,[16],5.06 µM
same,Activity,[17],52.46%
same,Activity,[18],Active
same,inhibition,[19],Active
same,Activity,[20],15.11%
same,IC50,[21],1300 nM
same,IC50,[22],1200 nM
same,IC50,[23],14.6 µM
same,IC50,[24],5.06 µM
same,Activity,[25],Active
same,inhibition at 20 µM,[26],59.1%
same,IC50,[27],5.95 µM
same,IC50,[28],2800 nM
same,IC50,[29],9.8 µM
same,Activity,[30],Active
same,IC50,[31],1200 nM
same,IC50,[32],6.3 µM
same,Activity,[33],Active
same,IC50 at 48 h,[34],95.2 µM
same,IC50,[35],5.95 µM
same,IC50,[36],1300 nM
same,IC50,[37],6.3 µM
same,IC50,[38],6.3 µM
same,fold change (FC),[39],3.4
same,IC50,[40],1200 nM
same,IC50,[41],7.5 µM
same,viability at 14.65 µM,[42],81.1%
same,Activity,[43],10.14%
same,selectivity ratio,[44],6.5
same,Activity,[45],18.04%
same,inhibition,[46],> 50%
